Measurements: patent publication US9422308B2, “Derivatives of docosahexaenoylethanolamide and uses thereof” (The United States of America, as represented by the …, priority 2012, dated 2016)

Molecular target: T1, FAAH (Homo sapiens, UniProt O00519)
T1 sequence (O00519 1-579): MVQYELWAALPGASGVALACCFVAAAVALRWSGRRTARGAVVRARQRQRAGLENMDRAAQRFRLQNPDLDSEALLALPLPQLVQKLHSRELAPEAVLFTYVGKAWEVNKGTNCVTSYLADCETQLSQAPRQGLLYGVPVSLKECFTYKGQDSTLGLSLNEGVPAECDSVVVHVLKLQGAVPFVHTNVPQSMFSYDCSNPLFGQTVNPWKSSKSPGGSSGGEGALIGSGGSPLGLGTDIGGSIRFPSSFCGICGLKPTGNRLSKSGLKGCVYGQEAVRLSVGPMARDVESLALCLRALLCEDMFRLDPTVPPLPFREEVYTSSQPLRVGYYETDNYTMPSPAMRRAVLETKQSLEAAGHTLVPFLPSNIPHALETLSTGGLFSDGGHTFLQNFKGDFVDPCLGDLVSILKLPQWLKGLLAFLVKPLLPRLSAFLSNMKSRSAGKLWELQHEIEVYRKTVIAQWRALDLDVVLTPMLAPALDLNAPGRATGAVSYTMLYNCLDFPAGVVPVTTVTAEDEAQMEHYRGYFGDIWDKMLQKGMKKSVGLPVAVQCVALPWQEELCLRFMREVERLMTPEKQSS
Assay: time course FAAH enzyme assay
Format: in vitro ADME
Conditions: for % remaining: 1 mM, pH 9
Experimental: Method development: The signal was optimized for each compound by ESI positive or negative ionization mode. A MS2 SIM scan was used to optimize the precursor ion and a product ion analysis was used to identify the best fragment for analysis and to optimize the collision energy.
Analysis: Samples were analyzed by LC/MS/MS using a API 3000 coupled with an Shimadzu HPLC and a CTC PAL chilled autosampler, all […] controlled by Analyst software (ABI). After separation on a C18 reverse phase HPLC column (Agilent, Waters, or equivalent). Mobile phase A was 0.1% AcOH in water. Mobile phase B was 0.1% AcOH in methanol. The flow rate was 0.6 mL/min. The gradient program included a 0.5 min hold at 30% B (the starting conditions), followed by a gradient to 100% B over 2.5 min and a 1 min hold at 100% B. The column was then returned to starting conditions and equilibrated over 1.25 min.
Assay Protocol: Assays were performed at 37° C. at pH=9.0 and involved the use of 0.1 U of FAAH. […] Reaction was terminated after an appropriate time by using protein precipitation treatment with acetonitrile (3:1, v/v).

% remaining (0 h): 99%
% remaining (0.5 h): 101%
% remaining (1 h): 85%
SMILES: CC/C=C\C/C=C\C/C=C\C/C=C\C/C=C\C/C=C\CCC(=O)NCC(C)(C)O [Compound 1, (4Z,7Z,10Z,13Z,16Z,19Z)—N-(2-hydroxy-2-methylpropyl)docosa-4,7,10,13,16,19-hexaenamide]
susceptibility to hydrolysis by FAAH: less susceptible to hydrolysis by FAAH than synaptamide or AEA
